Test: Inhibition of recombinant N-terminal His6-tagged Mycobacterium tuberculosis H37Rv IMPDH expressed in Escherichia coli BL21 (DE3) cells assessed as reduction of NAD+ to NADH using IMP and NAD+ as substrate treated 1 min after substrate incubation with enzyme by UV-visible spectrophotometry

O=C(NCCNS(=O)(=O)c1cccc2cnccc12)C1CCCCC1
IC50: 500 to 1500 nM

From ChEMBL document CHEMBL4393693, “Synthesis and Structure-Activity relationship of 1-(5-isoquinolinesulfonyl)piperazine analogues as inhibitors of Mycobacterium tuberculosis IMPDH” (Eur J Med Chem, 2019)
